Experimental data published in paper PMC7831380 (ACS chemical biology, 2020).
No end group written: not given here.

Experiment: Overall hydrophobicity from UPLC traces
Type: physicochemical
Details: Supporting Information Figure S1

## TRGFEWLDWEFGLPV (also: bicyclic or more (positions not given here)) [[graft1, 16]kB1]
  overall hydrophobicity compared to wild-type kB1: increased overall hydrophobicity

## TRWGLPV (also: bicyclic or more (positions not given here)) [[W^mut, 16]kB1]
  overall hydrophobicity compared to wild-type kB1: increased overall hydrophobicity
